{
  "source": "patent US20240226054A9",
  "about": "“AGENTS AND METHODS FOR PREVENTING AND TREATING SKELETAL MUSCLE DISEASES” (The Regents Of the University of California, priority 2022, published 2024)",
  "key": {"[1]": {"tested_on": "soleus muscle from the Nav1.4-R669H mouse", "type": "cell-based", "procedure": "(§1) Mouse Model of HypoPP. Knock-in mutant mouse models of HypoPP were previously generated; Type 1 with a missense mutation of the Cav1.1 calcium channel (Cacnals p.R528H) and Type 2 with a missense mutation of the Nav1.4 sodium channel (Scn4a p.R663H) homologous to the p.R669H missense mutation in patients with HypoPP Type 2. Mutant mice have a robust HypoPP phenotype with loss of force and paradoxical depolarization of skeletal muscle in response to a challenge in low extracellular [K^+] (<3 mM) or to intravenous administration of insulin plus glucose.\nEx vivo Contraction Studies. The outcome measure for susceptibility to HypoPP was the peak isometric force of the soleus muscle, in response to a tetanic stimulation, as previously described. In brief, after euthanizing the animal, the extensor digitorum longus (EDL) muscle or the soleus muscle was dissected free and suspended in a tissue bath held at 37° C. […] Muscles were suspended in a bicarbonate-buffered bath that was bubbled continuously with 5% CO2/95% 02 to maintain a pH of 7.4. The standard bath consisted of (in mM): 118 NaCl, 4.75 KCl, 1.18 MgSO4, 2.54 CaCl2), 1.18 NaH2PO4, 10 glucose, and 24.8 NaHCO3. The low-K^+ solution was identical, except for the reduction of KCl to 2 mM by replacement with NaCl. The osmolality of all solutions was 290 mOsm. Retigabine (gift from Prof. M. Taglialatela, Univ. […] The Kv7 inhibitor, XE991 (Sigma-Aldrich), was prepared in as a 100 mM DMSO stock solution and applied to muscle in a […] bath solution.\nElectrical stimulation was applied by a pair of platinum wires, oriented perpendicular to the long axis of the soleus muscle. Suprathreshold stimulation (80 mA) was applied as a tetanic burst (40 pulses, 0.4 msec, at 100 Hz), under computer control. All bath solutions contained 0.25 mM D-tubocurarine (Sigma-Aldrich) to prevent any contribution to muscle excitation from motor nerve endings. Muscle force was measured with a stiff strain gain (Forte 25, World Precision Instruments) and digitally sampled at 5 KHz. Muscle contractility was monitored by measuring the peak isometric force every two minutes, and test solutions were applied by complete exchange of the bath solution.\nThe efficacy of potassium channel openers to prevent the loss of force in HypoPP muscle was assessed by measuring isometric contractions, ex vivo, in both control (4.7 mM) and low extracellular [K^+] (2.0 mM). The HypoPP phenotype is shown for the drug-free responses of the soleus muscle from an Nav1.4-R669H mouse in the left panel of FIG. 1A. The peak isometric force during the tetanic contraction (100 Hz stimulation) was initially 11.7 gm in control [K^+], and then decreased to 7.6 gm (35% decrease) after 4 min. in 2 mM [K^+]. The loss of force is reversible, upon return to 4.7 mM [K^+] (e.g., see FIG. 1B).\nA method to quantify the extent of protection from loss of force by retigabine is illustrated in FIG. 2. This example was selected to illustrate the maximum variability in the extent of protection for the oscillations of soleus muscle force within a single trial (compare the responses at 24 min to those at 40 min.). […] The relative protection was calculated from the responses for each pair of soleus muscles from the same mouse serving as an internal control. In almost every trial (22 out of 24), two clear minima occurred during the 30 min. low-K^+ challenge. The relative protection for the retigabine response, defined as 1−(force loss in retigabine)/(force loss in control) was calculated for each of the two minima, and the average value was used as the quantitative estimate for the retigabine protection in that trial. Each soleus muscle was used for only a single trial (i.e. control or retigabine) because cumulative effects and run-down may occur if this long protocol (typically 70 min.) was repeated."}, "[2]": {"tested_on": "EDL fibers from the Nav1.4-R669H mouse", "experiment": "Membrane potential measurements (resting potential, microelectrode impalement)", "type": "cell-based", "procedure": "Membrane Potential Measurements. The membrane potential was recorded by impalement of superficial fibers from an ex vivo whole mount of the EDL muscle. Long-duration stable recording of the resting potential was achieved by using an orthogonal approach to the fiber with fine-tipped microelectrodes (resistance of 15-20 MW, filled with 3 M KCl). The bath solution was the same as that used for the ex vivo contraction studies, continuously bubbled with 5% CO2/95% O2, with a flow rate of ˜3 ml/min of the 0.3 ml recording chamber.\nThe impairment of contraction during an episode of HypoPP is caused by sustained depolarization, which inactivates sodium channels and reduces muscle fiber excitability. In HypoPP, ictal depolarization of the resting potential (Vrest) paradoxically occurs in low K^+ that would normally hyperpolarize the membrane from a negative shift of the K^+ Nernst potential (EK). It was tested whether retigabine prevents or reverses this paradoxical depolarization of HypoPP fibers exposed to low K^+. […] Reduction of K^+ to 2 mM or even 1 mM caused hyperpolarization of WT fibers, as expected from the negative shift of EK (FIG. 5A, gray shaded regions). At an extremely low K^+ of 0.5 mM, even WT fibers paradoxically depolarized (magenta region) as previously described. For EDL fibers from the Nav1.4-R669H mouse, the more modest K^+ reductions to 2 mM or 1 mM elicited paradoxical depolarization, which is the membrane potential equivalent of ictal HypoPP. […] These observations support the view that the beneficial effects of retigabine occur by a stabilizing effect on the normally polarized value of Vrest."}, "[3]": {"conditions": "cited from earlier work"}, "Kv7.1": {"molecular_target": "Kv7.1 (Homo sapiens, UniProt P51787)", "sequence (P51787 whole entry)": "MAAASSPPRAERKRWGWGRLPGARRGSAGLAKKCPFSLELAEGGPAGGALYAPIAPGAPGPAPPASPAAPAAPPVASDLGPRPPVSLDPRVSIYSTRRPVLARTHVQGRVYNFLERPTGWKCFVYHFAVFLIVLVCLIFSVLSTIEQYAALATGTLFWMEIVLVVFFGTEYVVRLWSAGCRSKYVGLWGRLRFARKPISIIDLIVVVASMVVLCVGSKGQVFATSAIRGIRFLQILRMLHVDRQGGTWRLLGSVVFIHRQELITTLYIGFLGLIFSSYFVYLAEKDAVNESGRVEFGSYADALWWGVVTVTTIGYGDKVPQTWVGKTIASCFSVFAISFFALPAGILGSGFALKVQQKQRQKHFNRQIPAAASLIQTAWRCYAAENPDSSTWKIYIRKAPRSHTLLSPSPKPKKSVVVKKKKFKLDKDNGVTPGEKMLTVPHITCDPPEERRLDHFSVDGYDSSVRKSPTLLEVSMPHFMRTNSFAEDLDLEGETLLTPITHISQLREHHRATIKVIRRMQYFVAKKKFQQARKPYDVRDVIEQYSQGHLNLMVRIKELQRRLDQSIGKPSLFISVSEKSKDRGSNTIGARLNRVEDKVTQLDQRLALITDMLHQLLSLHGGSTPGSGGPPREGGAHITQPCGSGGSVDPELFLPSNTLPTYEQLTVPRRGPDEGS", "conditions": "cited from earlier work"}, "rat": {"tested_on": "rat", "conditions": "30 mg/kg retigabine; cited from earlier work"}, "[4]": {"tested_on": "mouse muscle (mouse models of myotonia)", "conditions": "cited from earlier work"}, "[5]": {"tested_on": "EDL muscle from the Cav1.1-R528H mouse", "experiment": "Ex vivo contraction test, low-K+ challenge, HypoPP EDL muscle", "type": "cell-based", "procedure": "as §1\nEx vivo Contraction Studies. The outcome measure for susceptibility to HypoPP was the peak isometric force of the soleus muscle, in response to a tetanic stimulation, as previously described. In brief, after euthanizing the animal, the extensor digitorum longus (EDL) muscle or the soleus muscle was dissected free and suspended in a tissue bath held at 37° C. […] Muscles were suspended in a bicarbonate-buffered bath that was bubbled continuously with 5% CO2/95% 02 to maintain a pH of 7.4. The standard bath consisted of (in mM): 118 NaCl, 4.75 KCl, 1.18 MgSO4, 2.54 CaCl2), 1.18 NaH2PO4, 10 glucose, and 24.8 NaHCO3. […]\nElectrical stimulation was applied by a pair of platinum wires, oriented perpendicular to the long axis of the soleus muscle. […] Muscle force was measured with a stiff strain gain (Forte 25, World Precision Instruments) and digitally sampled at 5 KHz. Muscle contractility was monitored by measuring the peak isometric force every two minutes, and test solutions were applied by complete exchange of the bath solution.\nA method to quantify the extent of protection from loss of force by retigabine is illustrated in FIG. 2. […] The relative protection was calculated from the responses for each pair of soleus muscles from the same mouse serving as an internal control. […] The relative protection for the retigabine response, defined as 1−(force loss in retigabine)/(force loss in control) was calculated for each of the two minima, and the average value was used as the quantitative estimate for the retigabine protection in that trial. […]"}, "[6]": {"conditions": "chronic use as antiepileptic, cited from earlier work"}, "[7]": {"tested_on": "soleus muscle obtained from the knock-in mutant mouse model of HyperPP", "experiment": "In vitro contraction test, high K challenge, HyperPP soleus muscle", "type": "cell-based", "procedure": "The two paired muscles (left and right) were tested in separate organ baths. […] At 40 min into the study, a high K challenge was performed by exchanging the 4.7 mM K+ bath with one containing 10 mM K+."}, "mouse": {"tested_on": "mouse", "conditions": "30 mg/kg retigabine; cited from earlier work"}, "[8]": {"tested_on": "pharmacological model of Andersen-Tawil Syndrome (barium blocks Kir potassium channels)", "experiment": "Low K challenge in pharmacological model of Andersen-Tawil Syndrome (50 μM barium)", "type": "cell-based", "conditions": "pre-administration of 10 μM retigabine", "procedure": "A pharmacological model of Andersen-Tawil Syndrome (ATS) is created, in vitro, with a low concentration of barium (50 μM), which blocks Kir potassium channels. Kir2.1 is deficient from loss of function mutations of the KCNJ2 gene in ATS."}, "human HypoPP muscle": {"tested_on": "human HypoPP muscle", "conditions": "100 mM pinacidil; cited from earlier work"}},
  "note": "Entries after “also recorded” stand apart in the source; their conditions may differ. Read-outs that look alike come from different tables or passages of the source.",
  "data": [
    {"smiles": "Cc1cc(N2CCc3cc(F)ccc3C2)cc(C)c1NC(=O)CC(C)(C)C", "note": "[XEN1101, N-[4-(6-fluoro-3,4-dihydro-1H-isoquinolin-2-yl)-2,6-dimethylphenyl]-3,3-dimethylbutanamide]", "values": [
      {"measurement": "increase in baseline force", "setting": "[1]; XEN1101 10 μM at 10 min", "value": 20, "unit": "%"}
    ]},
    {"smiles": "CCOC(=O)Nc1ccc(NCc2ccc(F)cc2)cc1N", "note": "[retigabine, ethyl [2-amino-4-[[(4-fluorophenyl)methyl]amino]phenyl]carbamate]", "values": [
      {"measurement": "Vrest of normally polarized muscle fibers", "setting": "[2]; 4.7 K+, retigabine added", "value": "does not affect Vrest"},
      {"measurement": "resting potential of paradoxically depolarized HypoPP fibers (rescue)", "setting": "[2]; retigabine added while low K+ unchanged", "value": "repolarized to the normal Vrest; also recorded: induced fiber repolarization"},
      {"measurement": "paradoxical depolarization of HypoPP fibers during low K+ challenge (protection)", "setting": "[2]; retigabine applied before low K+ (1.0 or 2.0 mM)", "value": "prevented the paradoxical depolarization"},
      {"measurement": "protein binding (assumed)", "setting": "[3]; assumption for unbound fraction", "value": 80, "unit": "%"},
      {"measurement": "Cmax", "setting": "[3]; single 100 mg oral dose", "value": 390, "unit": "ng/mL"},
      {"measurement": "half-life", "setting": "[3]; single 100 mg oral dose", "value": 8, "unit": "h"},
      {"measurement": "sensitivity of Kv7.1 to retigabine relative to Kv7.2-Kv7.5 (fold less sensitive)", "setting": "Kv7.1", "value": 100, "unit": "fold"},
      {"measurement": "force with tetanic contractions lasting seconds", "setting": "rat", "value": "loss of force"},
      {"measurement": "fiber input resistance, resting potential or action potential properties (current-clamp)", "setting": "[4]; 20 mM retigabine", "value": "did not detect a change"},
      {"measurement": "reduction of ex vivo tetanic force", "setting": "[4]; 20 or 30 mM retigabine", "value": "did not report a reduction"},
      {"measurement": "after-discharges in mouse models of myotonia", "setting": "[4]; low-dose retigabine", "value": "suppresses after-discharges"},
      {"measurement": "relative peak force, sustained value after recovery", "setting": "[5]; 10 μM retigabine in 2 mM K+, EDL", "value": 0.83},
      {"measurement": "recovery from on-going loss of force in low K+", "setting": "[5]; 10 μM retigabine, vs contralateral control", "value": "Rescue; also recorded: induced a recovery of relative peak force"},
      {"measurement": "relative force before the low-K+ challenge on addition of retigabine", "setting": "[5]; 0.1 to 20 mM, Cav1.1-R528H EDL", "value": "not affected"},
      {"measurement": "side effects leading to discontinuation", "setting": "[6]", "value": "skin discoloration"},
      {"measurement": "side effects leading to discontinuation", "setting": "[6]; listed as Retigabine", "value": "skin discoloration and eye abnormalities"},
      {"measurement": "attenuation of the loss of force", "setting": "[7]; 10 μM retigabine pre-treatment, 10 mM K+ challenge", "value": "about 50%"},
      {"measurement": "maximal force after retigabine before challenge (relative)", "setting": "[7]; 10 μM retigabine, 4.7 mM K+", "value": "about 1.0"},
      {"measurement": "prevention of loss of force in HyperPP model", "setting": "[7]; retigabine (10 μM)", "value": "partially effective"},
      {"measurement": "recovery of force on return of bath K+ to 4.7 mM", "setting": "[7]; retigabine exposed muscle", "value": "full recovery of force"},
      {"measurement": "force with tetanic contractions lasting seconds", "setting": "mouse", "value": "loss of force"},
      {"measurement": "protection from low-K+ induced loss of force", "setting": "[1]; 1 μM retigabine pre-treatment", "value": "substantial protection"},
      {"measurement": "loss of peak force during 30 min challenge with 2 mM K+", "setting": "[1]; 2 μM retigabine pre-treatment", "value": "markedly attenuated the loss of peak force"},
      {"measurement": "trials with enhanced recovery", "setting": "[1]; 10 μM retigabine applied during 2 mM K+", "value": "5 of 6"},
      {"measurement": "relative peak force, sustained value after recovery", "setting": "[1]; 10 μM retigabine in 2 mM K+, soleus", "value": 0.83},
      {"measurement": "protection from low-K+ induced loss of force", "setting": "[1]; 10 μM retigabine pre-treatment, K+ 4.7 mM to 2 mM", "value": "completely suppressed any detectable loss of force"},
      {"measurement": "relative force in the 2 mM [K+] challenge", "setting": "[1]; 10 μM retigabine pre-treatment, representative responses FIG. 1B", "value": "> 0.85"},
      {"measurement": "improved level of tetanic force in retigabine, of baseline", "setting": "[1]; 10 μM retigabine, still in 2 mM K+ bath, n=3", "value": 83.2, "unit": "%"},
      {"measurement": "relative force before the low-K+ challenge on addition of retigabine", "setting": "[1]; 0.1 to 20 mM, Nav1.4-R669H soleus", "value": "not affected"},
      {"measurement": "baseline force in 4.7 mM K+", "setting": "[1]; bath containing 10 μM retigabine", "value": "unchanged"},
      {"measurement": "impairment of peak isometric force", "setting": "[1]; up to 20 μM retigabine, 400 msec tetanic contraction every two minutes for two hrs", "value": "no impairment"},
      {"measurement": "prevention of loss of muscle force with a low K challenge (2 mM)", "setting": "[8]", "value": "effective a preventing the loss of muscle force"}
    ]},
    {"smiles": "CC(N/C(=N\\C#N)Nc1ccncc1)C(C)(C)C", "note": "(centres unmarked) [pinacidil]", "values": [
      {"measurement": "protection against loss of force", "setting": "human HypoPP muscle", "value": "protect against loss of force"},
      {"measurement": "protection from loss of force in a low-K+ challenge", "setting": "[1]; pinacidil pre-treatment", "value": "protects HypoPP muscle from a loss of force"}
    ]}
  ]
}
